Reference: ChEMBL document CHEMBL3243925, “Disteroidyl ethers. 1. Synthesis and oral long-lasting uterotrophic activity of 1,3,5(10)-estratrien-17-yl enol ethers of 3-keto steroids” (1977)
The source made the active and inactive calls. The calls are words filed in the database; no cut-off is given here.

Experiments:
[1] = test system: Rattus norvegicus; experiment: Uterotrophic activity in spayed Wistar rat assessed as autopsies by measuring uterus weight at 0.1 umol, po after 1 week (reference value: 15.1 +/- 0.51 mg); format: functional
[2] = test system: Rattus norvegicus; experiment: Uterotrophic activity in spayed Wistar rat assessed as autopsies by measuring uterus weight at 0.1 umol, po after 2 weeks (reference value: 15.9 +/- 0.50 mg); format: functional

SMILES | Activity [1] | Activity [2]
CCC(=O)O[C@H]1CC[C@H]2[C@@H]3CC[C@@H]4CC(O[C@H]5CC[C@H]6[C@@H]7CCc8cc(OC(=O)c9ccccc9)ccc8[C@H]7CC[C@]56C)CC[C@]4(C)[C@H]3CC[C@]12C (some centres undefined) | inactive | inactive
CCC(=O)O[C@H]1CC[C@H]2[C@@H]3CC[C@H]4CC(O[C@H]5CC[C@H]6[C@@H]7CCc8cc(OC(=O)c9ccccc9)ccc8[C@H]7CC[C@]56C)=CC[C@]4(C)[C@H]3CC[C@]12C | 23.3 mg | 21.3 mg
C#C[C@]1(OC(C)=O)CC[C@H]2[C@@H]3CC=C4C=C(O[C@H]5CC[C@H]6[C@@H]7CCc8ccccc8[C@H]7CC[C@]56C)CC[C@@H]4[C@H]3CC[C@@]21C | inactive | inactive
C#C[C@]1(OC(C)=O)CC[C@H]2[C@@H]3CC=C4C=C(O[C@H]5CC[C@H]6[C@@H]7CC(=O)c8cc(OC(=O)c9ccccc9)ccc8[C@H]7CC[C@]56C)CC[C@@H]4[C@H]3CC[C@@]21C | inactive | inactive
C#C[C@]1(O)CC[C@H]2[C@@H]3CCc4cc(O)ccc4[C@H]3CC[C@@]21C [ETHINYL ESTRADIOL] | 22.5 mg | 20.5 mg
C#C[C@@]1(O)CC[C@H]2[C@@H]3CC=C4C=C(O[C@H]5CC[C@H]6[C@@H]7CCc8cc(O)ccc8[C@H]7CC[C@]56C)CC[C@@H]4[C@H]3CC[C@@]21C | inactive | inactive
C#C[C@]1(O)CC[C@H]2[C@@H]3CC=C4C=C(O[C@H]5CC[C@H]6[C@@H]7CCc8cc(O)ccc8[C@H]7CC[C@]56C)CC[C@@H]4[C@H]3CC[C@@]21C | 40.5 mg | 23.3 mg
C[C@]12CC[C@@H]3c4ccc(OC5CCCC5)cc4CC[C@H]3[C@@H]1CC[C@@H]2OC1=CC2=CC[C@@H]3[C@H](CC[C@]4(C)C(=O)CC[C@@H]34)[C@H]2CC1 | 29.1 mg | 26.2 mg
CC(=O)O[C@]1(C(C)=O)CC[C@H]2[C@@H]3CC(C)=C4C=C(O[C@H]5CC[C@H]6[C@@H]7CCc8cc(OC(=O)c9ccccc9)ccc8[C@H]7CC[C@]56C)CC[C@]4(C)[C@H]3CC[C@@]21C | 26.6 mg | 21.9 mg
C#C[C@]1(OC(C)=O)CC[C@H]2[C@@H]3CC=C4C=C(O[C@H]5CC[C@H]6[C@@H]7CCc8cc(OC(=O)CCC)ccc8[C@H]7CC[C@]56C)CC[C@@H]4[C@H]3CC[C@@]21C | 26.5 mg | 18.3 mg
C#C[C@@]1(OC(C)=O)CC[C@H]2[C@@H]3CC=C4C=C(O[C@H]5CC[C@H]6[C@@H]7CCc8cc(OC(=O)c9ccccc9)ccc8[C@H]7CC[C@]56C)CC[C@@H]4[C@H]3CC[C@@]21C | inactive | inactive
C#C[C@]1(O)CC[C@H]2[C@@H]3CCc4cc(OC5CCCC5)ccc4[C@H]3CC[C@@]21C [QUINESTROL] | 39 mg | 29 mg
C#C[C@]1(OC(C)=O)CC[C@H]2[C@@H]3CC=C4C=C(O[C@H]5CC[C@H]6[C@@H]7CCc8cc(O)ccc8[C@H]7CC[C@]56C)CC[C@@H]4[C@H]3CC[C@@]21C | 38.1 mg | 26.7 mg
C#C[C@]1(OC(=O)CCCCCC)CC[C@H]2[C@@H]3CC=C4C=C(O[C@H]5CC[C@H]6[C@@H]7CCc8cc(OC(=O)C(C)C)ccc8[C@H]7CC[C@]56C)CC[C@@H]4[C@H]3CC[C@@]21C | 37.2 mg | 30.4 mg
C#C[C@]1(OC(C)=O)CC[C@H]2[C@@H]3CC=C4C=C(O[C@H]5CC[C@H]6[C@@H]7CCc8cc(OC9CCCC9)ccc8[C@H]7CC[C@]56C)CC[C@@H]4[C@H]3CC[C@@]21C | 17.9 mg | –
